Results as given in patent US10668055B2, “Cancer treatment using combinations of ERK and RAF inhibitors” (BIOMED VALLEY DISCOVERIES, INC., priority 2013, dated 2020).
Values belong to the molecule of their own block, whether it stands above or below them.

How the values were obtained:
A375 = experiment: Single agent proliferation assay (CellTiter-Glo, 72 h); format: cell-based, human; details: A375, 72 h
Description: (§1) Cells were seeded in 96-well plates at the densities and media conditions indicated in Table 17 and allowed to adhere overnight prior to addition of compound or vehicle control. Compounds were prepared from DMSO stocks to give the desired final concentrations. The final DMSO concentration was constant at 0.1%. Test compounds were incubated with the cells for 72 h at 37° C., 5% CO2 in a humidified atmosphere. CellTiter-Glo® reagent (Promega, Madison, Wis.) was added according to manufacturer's instructions and luminescence detected using the BMG FLUOstar plate reader (BMG Labtech, Ortenberg, Germany). The average media only background value was deducted and the data analysed using a 4-parameter logistic equation in GraphPad Prism (GraphPad Software, La Jolla, Calif.).

G-361 = experiment: as above; format: cell-based; details: G-361, 72 h
Description: as §1

[1] = tested on: A375 human melanoma xenograft; experiment: A375 in vivo study: tumor growth delay and regression responses; design: species or system athymic nude mice; details: for MTV (n) D45: Day 45
Description: Female athymic nude mice (Crl:NU(Ncr)-Foxn/^nu, Charles River) were nine weeks old with a body weight (BW) range of 17.5 to 26.2 grams on Day 1 of the study. The animals were fed ad libitum water (reverse osmosis, 1 ppm CI), and NIH 31 Modified and Irradiated Lab Diet® consisting of 18.0% crude protein, 5.0% crude fat, and 5.0% crude fiber. The mice were housed on irradiated Enrich-o'cobs™ Laboratory Animal Bedding in static microisolators on a 12-hour light cycle at 20-22° C. (68-72° F.) and 40-60% humidity. The recommendations of the Guide for Care and Use of Laboratory Animals with respect to restraint, husbandry, surgical procedures, feed and fluid regulation, and veterinary care were complied with.
Tumor xenografts were initiated with A375 human melanomas by serial subcutaneous transplantation in athymic nude mice. On the day of tumor implant, each test mouse received a 1 mm^3 A375 fragment implanted subcutaneously in the right flank, and tumor growth was monitored as the average size approached the target range of 80 to 120 mm^3. Tumors were measured in two dimensions using calipers, and volume was calculated using the formula: […]
Ten days after tumor implantation, designated as Day 1 of the study, the animals were sorted into nine groups (Groups 1-9) each consisting of fifteen mice and one group (Group 10) consisting of ten mice. Individual tumor volumes ranged from 75 to 144 mm^3 and group mean tumor volumes were 110 or 111 mm^3.
On Day 1 of the study, mice were sorted into nine groups (Group 1-9) each consisting of fifteen mice and one group (Group 10) consisting of ten mice, and dosing was initiated according to the treatment plan summarized in Table 15 below. Each dose was given by oral gavage (p.o.) in a dosing volume of 10 mL/kg (0.2 mL per 20 grams of body weight), scaled to the body weight of each individual animal. The vehicle and dabrafenib doses were to be given once daily until study end (qd to end), whereas the BVD-523 doses were to be given twice daily until study end (bid to end). For bid dosing, dosing was initiated in the afternoon on Day 1, so that one dose was given on the first day (“first day 1 dose”).
Due to the striking response to combination treatment, dosing in Groups 2-5 was stopped on Day 20 in order to monitor tumor re-growth. Dosing was to be re-initiated in a group when the mean tumor burden reached 1000 mm^3. By Day 42, the 1000 mm^3 mean tumor burden had not been reached in any of the combination groups. Dosing was re-initiated to permit post-final dose serum and tumor sampling for pharmacokinetic analyses. […] The final dosing schedules are shown below in Table 16.
Tumors were measured using calipers twice per week, and each animal was euthanized when its tumor reached the pre-determined tumor volume endpoint of 2000 mm^3 or on the final day, whichever came first. Animals that exited the study for tumor volume endpoint were documented as euthanized for tumor progression (TP), with the date of euthanasia. The time to endpoint (TTE) for analysis was calculated for each mouse by the following equation:
[formula] where TTE is expressed in days, endpoint volume is expressed in mm^3, b is the intercept, and m is the slope of the line obtained by linear regression of a log-transformed tumor growth data set. The data set consists of the first observation that exceeded the endpoint volume used in analysis and the three consecutive observations that immediately preceded the attainment of this endpoint volume. The calculated TTE is usually less than the TP date, the day on which the animal was euthanized for tumor size. […] Any animal classified as having died from NTR (non-treatment-related) causes due to accident (NTRa) or due to unknown etiology (NTRu) were excluded from TTE calculations (and all further analyses). Animals classified as TR (treatment-related) deaths or NTRm (non-treatment-related death due to metastasis) were assigned a TTE value equal to the day of death. […]

A375 cells [2] = experiment: Combination study, 10×8 dose matrix, Alamar Blue / CellTiter-Glo, Bliss additivity model; format: cell-based, human; details: single agent
Description: For combination studies, A375 cells (ATCC) were seeded into triplicate 96-well plates at a cell density of 3000 cells/well in DMEM plus 10% FBS and allowed to adhere overnight prior to addition of test compound or vehicle control. Combinations were tested using a 10×8 dose matrix with a final DMSO concentration of 0.2%. A 96 hour assay incubation period followed, with subsequent addition of Alamar Blue 10% (v/v) and 4 hours incubation prior to reading on a fluorescent plate reader. After reading Alamar Blue, the medium/Alamar Blue mix was flicked off and 100 μl of CellTiter-Glo/PBS (1:1) added and the plates processed as per the manufacturer's instructions (Promega). Media only background values were subtracted before the data was analysed. The Bliss additivity model was then applied.
In brief, predicted fractional inhibition values for combined inhibition were calculated using the equation Cbliss=A+B−(A×B) where A and B are the fractional inhibitions obtained by drug A alone or drug B alone at specific concentrations. Cbliss is the fractional inhibition that would be expected if the combination of the two drugs were exactly additive. Cbliss values are subtracted from the experimentally observed fractional inhibition values to give an ‘excess over Bliss’ value. Excess over Bliss values greater than 0 indicate synergy, whereas values less than 0 indicate antagonism. […]

[3] = A375 in vivo study: toxicity (body weight, deaths, side effects)
Source text: Animals were weighed daily on Days 1-5, then twice per week until completion of the study. […] Individual body weight loss was monitored as per protocol, and any animal that exceeded the limits for acceptable body weight loss was euthanized. Group mean body weight loss also was monitored as per protocol. Dosing was to be suspended in any group that exceeded the limits for acceptable mean body weight loss. If mean body weight recovered, then dosing was to be resumed in that group, but at a lower dosage or less frequent dosing schedule.
Acceptable toxicity for the maximum tolerated dose (MTD) was defined as a group mean body-weight loss of less than 20% during the study and not more than 10% treatment-related (TR) deaths. […] A death was classified as non-treatment-related (NTR) if there was no evidence that death was related to treatment side effects. NTR deaths were further characterized based on cause of death. A death was classified as NTRa if it resulted from an accident or human error. […] A death was classified as NTRu if the cause of death was unknown and there was no available evidence of death related to treatment side effects, metastasis, accident or human error, although death due to treatment side effects cannot be excluded.

[4] = tested on: melanoma xenograft model derived from biopsies obtained from a patient; experiment: Melanoma xenograft model derived from patient biopsies after progression on vemurafenib; format: in vivo; details: model with acquired cross-resistance
A375 cells [5] = experiment: Dose escalation study in A375 cells; format: cell-based, human; details: after 2 months, cells exposed to agent alone
Description: Single agent dose escalations were performed based on Little et al., 2011 and is outlined in FIG. 25. Cells were then allowed to grow until 70-90% confluence and split. […] Medium was refreshed every 3-4 days. When cells again reached about 40-60% confluence, the dose was escalated. In the event that the 40-60% window was missed, the cells were split again and dosed once they reached 40-60% confluence. Again, medium was refreshed every 3-4 days. The process was repeated as required (FIG. 25).

[6] = tested on: MAPK signaling pathway in A375 and HCT116 cells; experiment: Western blot analysis of MAPK signaling, cell cycle and apoptosis proteins; format: cell-based, human
Description: Cells were allowed to adhere overnight prior to addition of the indicated amount of test compound (BVD-523) or vehicle control. Cells were treated for either 4 or 24 hours before isolation of whole-cell protein lysates, as specified below. Cells were harvested by trypsinisation, pelleted and snap frozen. Lysates were prepared with RIPA (Radio-Immunoprecipitation Assay) buffer, clarified by centrifugation and quantitated by bicinchoninic acid assay (BCA) assay. 20-50 μg of protein was resolved by SDS-PAGE electrophoresis, blotted onto PVDF membrane and probed using the antibodies detailed in Table 13 (for the 4-hour treatment) and Table 14 (for the 24-hour treatment) below.

IC50 (A375): 0.026 µM
SMILES: N#Cc1c(Oc2ccc(F)c(NC(=O)Cc3cccc(C(F)(F)F)c3)c2)ccc2nc(NC(=O)C3CC3)sc12 [TAK-632]
IC50 (G-361): 0.164 µM

SMILES: CC(C)(C)c1nc(-c2cccc(NS(=O)(=O)c3c(F)cccc3F)c2F)c(-c2ccnc(N)n2)s1 [Dabrafenib]
IC50 (A375; Homo sapiens, A-375): ~0.0007 µM | % TGD ([1]; G6: 50 mg/kg po qd to end): 75% | CR (complete regressions) ([1]; G6: 50 mg/kg po qd to end): 0 | Median TTE ([1]; G6: 50 mg/kg po qd to end): 16.1 days | PR (partial regressions) ([1]; G6: 50 mg/kg po qd to end): 0 | T-C ([1]; G6: 50 mg/kg po qd to end): 6.9 days | TFS (tumor free survivors) ([1]; G6: 50 mg/kg po qd to end): 0 | Tumors that attained the 2000 mm^3 endpoint volume ([1]; G6: 50 mg/kg po qd to end): All | % TGD ([1]; G7: 100 mg/kg po qd to end): 210% | CR (complete regressions) ([1]; G7: 100 mg/kg po qd to end): 0 | Median TTE ([1]; G7: 100 mg/kg po qd to end): 28.5 days | PR (partial regressions) ([1]; G7: 100 mg/kg po qd to end): 1 | T-C ([1]; G7: 100 mg/kg po qd to end): 19.3 days | TFS (tumor free survivors) ([1]; G7: 100 mg/kg po qd to end): 0 | Tumors that attained the 2000 mm^3 endpoint volume ([1]; G7: 100 mg/kg po qd to end): 13/15 | MTV (n) D45 ([1]; G7: 100 mg/kg po qd to end): 282 (2) imd | PR (partial regressions) ([1]; G7: 100 mg/kg po qd to end, listed as dabrafenib): One and one | MTV ([1]; G7: 100 mg/kg po qd to end, two tumors remaining on Day 45): 282 mm^3 | IC50 (G-361; Homo sapiens): ~0.0014 µM | Sensitivity of A375 cells (BRAF V600E) (A375 cells [2]): sensitive | Deaths NTR ([3]; G6: 50 mg/kg po qd to end): 0 | Deaths TR ([3]; G6: 50 mg/kg po qd to end): 0 | Deaths NTR ([3]; G7: 100 mg/kg po qd to end): 0 | Deaths TR ([3]; G7: 100 mg/kg po qd to end): 0 | Signs of treatment-related side effects ([3]; mono- and combination therapy groups): no noteworthy signs of treatment-related side effects | Anti-tumor response [4]: insensitive

SMILES: CC(C)Nc1cc(-c2c[nH]c(C(=O)N[C@H](CO)c3cccc(Cl)c3)c2)c(Cl)cn1 [BVD-523]
IC50 (A375; Homo sapiens, A-375): 0.087 µM | Increase in drug exposure beyond the IC50 that cells withstand (A375 cells [5]): less than 10 fold | % TGD ([1]; G8: 50 mg/kg po bid to end): −7% | Median TTE ([1]; G8: 50 mg/kg po bid to end): 8.6 days | PR (partial regressions) ([1]; G8: 50 mg/kg po bid to end): 0 | MTV (n) D45 ([1]; G8: 50 mg/kg po bid to end): 0 (1) imd | % TGD ([1]; G9: 100 mg/kg po bid to end): 101% | Median TTE ([1]; G9: 100 mg/kg po bid to end): 18.5 days | PR (partial regressions) ([1]; G9: 100 mg/kg po bid to end): 0 | T-C ([1]; G9: 100 mg/kg po bid to end): 9.3 days | MTV (n) D45 ([1]; G9: 100 mg/kg po bid to end): 2 (2) imd | PARP protein cleavage and increased apoptosis ([6]; A375 cell background): not noted | Autophosphorylation of ERK ([6]; FIG. 18): allows for the autophosphorylation of ERK while still inhibiting ERK | DUSP6 total protein levels ([6]; prolonged treatment): greatly reduced | cyclin-D1 protein levels ([6]; prolonged treatment): greatly reduced | total levels of Bim-EL ([6]; prolonged treatment): increase | IC50 (G-361; Homo sapiens): 0.344 µM | Deaths NTR ([3]; G8: 50 mg/kg po bid to end): 0 | Deaths TR ([3]; G8: 50 mg/kg po bid to end): 0 | Mean BW Nadir ([3]; G8: 50 mg/kg po bid to end, nadir on Day 2): −0.1% Day 2 | Deaths NTR ([3]; G9: 100 mg/kg po bid to end): 0 | Deaths TR ([3]; G9: 100 mg/kg po bid to end): 0 | Anti-tumor response [4]: potent anti-tumor response
